Test system: Hep G2.2.15 cells
Experiment: Cell viability by MTT, Hep G2.2.15 cells
Type: cell-based, human
Description: The Hep G2.2.15 cells were seeded at 3×10^4 cells/well into 96-well culture plates and incubated at 37° C. in 5% CO2 overnight. After 3 to 4 days, the confluent cultures were cultured at 37° C. for another 3 to 5 days for HBV surface antigen (HBsAg) and HBV e-antigen (HBeAg) induction. Various concentrations of test articles including the positive control substance were then added during the 72 hrs induction period. The cultured media were harvested by centrifugation and the levels of HBsAg and HBeAg were analyzed with commercial enzyme-linked immunosorbant assay (ELISA) kits for HBsAg qualitative testing (General Biologicals Corp., SURASE B-96 (TMB)) and that for HBeAg qualitative testing (General Biologicals Corp., EASE BN-96 (TMB)), respectively. The activity expressed in terms of the efficiency of antigen secretion in percentage (hereinafter referred to as “relative activity”) was calculated with the equation Relative activity (%)=The ratio of the amount of antigen in the cultured medium with treatment to that without treatment×100.
Cell viability was assayed by the MTT method.

With `CC(C)(C)C(=O)OCOP(=O)(COCCn1cnc2c(N)ncnc21)OCOC(=O)C(C)(C)C` [Adefovir, Adefovir dipivoxil] the “MTT (+) drug/(−) drug (Ratio), cytotoxicity” value (0.2 uM) was 0.961 and the “MTT (+) drug/(−) drug (Ratio), cytotoxicity” value (1 uM) was 0.953.

— US9675652B2, “Compositions and methods to relieve chronic diseases symptoms” (priority 2011, dated 2017)
